{"source": "patent EP0352817A2", "about": "“Monoclonal antibody to catecholamine metabolite and quantitative assay for catecholamine metabolite” (ORIENTAL YEAST CO., LTD., priority 1988, dated 1990)", "system": "monoclonal antibody specific against catecholamine metabolites containing 3-methoxy, 4-hydroxy group therein", "test": "standard curves for fractionation and determination of ℓ-VMA and HVA in competitive EIA", "assay_type": "binding, BALB/c mice", "conditions": "pH 8.0, amount of less than 1 µM", "text": "Then, VMA-SBA adsorbed onto the solid phase by the action other than the covalent bond was washed with 0.1 N acetic acid containing 0.1% (w/v) SDS."}
{"smiles": "COc1cc(C(O)C(=O)O)ccc1O", "note": "(centres unmarked) [Vanillylmandelic acid]", "values": [{"measurement": "reaction in competitive EIA", "result": "reacted only"}]}
{"smiles": "COc1cc(C(O)C(=O)O)ccc1O", "note": "(single isomer, unassigned) [ℓ-VMA]", "values": [{"measurement": "reaction in competitive EIA", "result": "did not react"}]}
